According to US8536202B2, “Triazole-substituted anthranilamides as pesticides” (Bayer Cropscience AG, priority 2010, dated 2013):
Read-outs that look alike come from different tables or passages of the source.

Legend:
Boophilus microplus = Boophilus microplus test (BOOPMI injection); assay type: in vivo; conditions: Rhipicephalus microplus, 168 h, 20 μg/animal, after 7 days, read-out: activity in % (no fertile eggs laid)
Description: (§1) Solvent: dimethyl sulphoxide
An appropriate preparation of active compound is prepared by mixing 10 mg of active compound with 0.5 ml of solvent and diluting the concentrate with solvent to the desired concentration. The solution of active compound is injected into the abdomen (Boophilus microplus), and the animals are transferred to dishes and kept in a climatized room. Activity is assessed by deposition of fertile eggs.
After 7 days, the activity in % is assessed. Here, 100% means that none of the ticks has laid fertile eggs.

[1] = system: larvae of the mustard beetle (Phaedon cochleariae); test: Phaedon test (PHAECO spray treatment); assay type: in vivo; conditions: 168 h, read-out: activity in %
Procedure, shortened: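 Compound dissolved in acetone/dimethylformamide with alkylaryl polyglycol ether emulsifier, then diluted with emulsifier-containing water to test concentration for spray treatment of Phaedon cochleariae larvae. Activity scored after 7 days as % larvae killed (100% = all dead, 0% = none).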

[2] = log P determination by HPLC on reversed-phase columns (EEC Directive 79/831 Annex V.A8); assay type: physicochemical; conditions: pH 2.7
Procedure, shortened: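 log P from reversed-phase LC-MS retention at pH 2.7, 0.1% formic acid water/acetonitrile gradient 10–95% acetonitrile. Calibrated against C3–C16 unbranched alkan-2-ones, interpolating linearly between adjacent alkanones.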

[3] = system: caterpillars of the armyworm (Spodoptera frugiperda); test: Spodoptera frugiperda test (SPODFR spray treatment); assay type: in vivo; conditions: 168 h, read-out: activity in %
Procedure, shortened: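 Maize leaf discs sprayed with compound diluted in emulsifier-containing water (acetone/DMF solvent, alkylaryl polyglycol ether emulsifier), dried, then infested with armyworm caterpillars. Kill scored after 7 days as % mortality, 100% = all caterpillars dead, 0% = none.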

Lucilia cuprina larvae = test: Lucilia cuprina test (LUCICU); assay type: in vivo; conditions: 48 h, read-out: kill in %
Description: as §1
An appropriate preparation of active compound is prepared by mixing 10 mg of active compound with 0.5 ml of dimethyl sulphoxide and diluting the concentrate with water to the desired concentration.
Vessels containing horse meat treated with the preparation of active compound at the desired concentration are populated with approximately 20 Lucilia cuprina larvae.
After 2 days, the kill in % is ascertained. Here, 100% means that all of the larvae have been killed; 0% means that no larvae have been killed.

[4] = system: green peach aphid (Myzus persicae); test: Myzus test (MYZUPE spray treatment), Use Example 4; assay type: in vivo; conditions: 144 h; for pest or weed control at 100 g/ha: read-out: activity in %
Procedure, shortened: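 Compound was formulated in acetone/dimethylformamide with alkylaryl polyglycol ether emulsifier and diluted in emulsifier-containing water. It was sprayed onto Chinese cabbage leaf discs infested with all stages of Myzus persicae. Mortality (%) was scored after 6 days, where 100% means all aphids killed.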

[5] = HPLC on reversed-phase columns (C 18), EEC Directive 79/831 Annex V.A8, read-out: logP
[6] = reversed-phase C18 HPLC column, HPLC on reversed-phase columns (C 18), EEC Directive 79/831 Annex V.A8, read-out: logP

Compound | pest or weed control at 100 g/ha ([1]; 100 g/ha, after 7 days) | chromatographic logP [2] | pest or weed control at 100 g/ha ([3]; 100 g/ha, after 7 days) | pest or weed control at 100 g/ha ([4]; 100 g/ha, after 6 days) | other results
Cc1cc(Br)cc(C(=O)NC(C)C)c1NC(=O)c1cc(Cn2ncc(C(F)(F)F)n2)nn1-c1ncccc1Cl [Example 175] | 100% | 3.55 | 100% |  | pest or weed control at 0.02 mg (Boophilus microplus): 100%; pest or weed control at 100 ppm (Lucilia cuprina larvae): 100%
CC(NC(=O)c1cc(Cl)cc(Cl)c1NC(=O)c1cc(Cn2ncc(C(F)(F)F)n2)nn1-c1ncccc1Cl)C1CC1 (stereo not drawn) [Example 147] | 100% | 3.73 | 100% |  | pest or weed control at 0.02 mg (Boophilus microplus): 100%; pest or weed control at 100 ppm (Lucilia cuprina larvae): 100%
CNC(=O)c1cc(C#N)cc(C)c1NC(=O)c1cc(Cn2ncc(C(F)(F)C(F)(F)C(F)(F)F)n2)nn1-c1ncccc1Cl [Example 387] |  |  |  |  | pest or weed control at 100 g/ha [1]: 100%; pest or weed control at 100 g/ha [4]: 100%; chromatographic logP [2, 5]: 3.39; pest or weed control at 100 g/ha [3]: 100%
CSC[C@H](C)NC(=O)c1cc(I)cc(C)c1NC(=O)c1cc(Cn2cc(C(F)(F)C(F)(F)F)nn2)nn1-c1ncccc1Cl [Example 316] | 100% | 3.91 | 100% | 100% | 
Cc1cc(Cl)cc(C(=O)NC(C)(C)C)c1NC(=O)c1cc(Cn2cc(C(F)(F)C(F)(F)F)nn2)nn1-c1ncccc1Cl [Example 304] | 100% | 3.85 | 100% | 100% | 
CCNC(=O)c1cc(Cl)cc(C)c1NC(=O)c1cc(Cn2cc(C(F)(F)C(F)(F)F)nn2)nn1-c1ncccc1Cl [Example 302] | 100% | 3.26 | 100% | 80% | 
Cc1cc(I)cc(C(=O)NCC#N)c1NC(=O)c1cc(Cn2ncc(C(F)(F)F)n2)nn1-c1ncccc1Cl [Example 165] | 100% | 3.11 | 100% | 100% | 
Cc1cc(C#N)cc(C(N)=O)c1NC(=O)c1cc(Cn2ncc(C(F)(F)F)n2)nn1-c1ncccc1Cl [Example 123] | 100% | 2.41 | 100% |  | pest or weed control at 20 g/ha ([4]; after 6 days): 100%
Cc1cc(I)cc(C(N)=O)c1NC(=O)c1cc(Cn2cc(C(F)(F)C(F)(F)C(F)(F)F)nn2)nn1-c1ncccc1Cl [Example 332] |  |  |  |  | pest or weed control at 100 g/ha [1]: 100%; pest or weed control at 100 g/ha [4]: 100%; chromatographic logP [2, 5]: 3.35; pest or weed control at 100 g/ha [3]: 100%
Cc1cc(F)cc(C(=O)NC(C)C)c1NC(=O)c1cc(Cn2ncc(C(F)(F)F)n2)nn1-c1ncccc1Cl [Example 170] | 100% | 3.08 | 100% | 100% | 
Cc1cc(Cl)cc(C(=O)NC(C)C2CC2)c1NC(=O)c1cc(Cn2cc(C(F)(F)F)nn2)nn1-c1ncccc1Cl (stereo not drawn) [Example 193] | 100% | 3.34 | 100% | 100% | 
Cc1cc(Cl)cc(C(N)=O)c1NC(=O)c1cc(Cn2ncc(C(F)(F)C(F)(F)C(F)(F)F)n2)nn1-c1ncccc1Cl [Example 384] |  |  |  |  | pest or weed control at 100 g/ha [1]: 100%; pest or weed control at 100 g/ha [4]: 100%; chromatographic logP [2, 5]: 3.5; pest or weed control at 100 g/ha [3]: 100%
Cc1cc(Cl)cc(C(N)=O)c1NC(=O)c1cc(Cn2cc(C(F)(F)F)nn2)nn1-c1ncccc1Cl [Example 192] | 100% | 2.44 | 100% | 100% | 
Cc1cc(C#N)cc(C(=O)NC2CC2)c1NC(=O)c1cc(Cn2ncc(C(F)(F)F)n2)nn1-c1ncccc1Br [Example 11] | 100% |  | 100% | 100% | chromatographic logP [2, 6]: 2.55
Cc1cc(C#N)cc(C(N)=O)c1NC(=O)c1cc(Cn2ncc(C(F)(C(F)(F)F)C(F)(F)F)n2)nn1-c1ncccc1Cl [Example 255] | 100% | 3.19 | 100% | 80% | 
CNC(=O)c1cc(Cl)cc(C)c1NC(=O)c1cc(Cn2cc(C(F)(F)F)nn2)nn1-c1ncccc1Cl [Example 187] | 100% | 2.6 | 100% | 100% | 
Cc1cc(Cl)cc(C(=O)NCC2CC2)c1NC(=O)c1cc(Cn2cc(C(F)(F)C(F)(F)C(F)(F)F)nn2)nn1-c1ncccc1Cl [Example 325] |  |  |  |  | pest or weed control at 100 g/ha [1]: 100%; pest or weed control at 100 g/ha [4]: 100%; chromatographic logP [2, 5]: 3.9; pest or weed control at 100 g/ha [3]: 100%
CNC(=O)c1cc(Cl)cc(Cl)c1NC(=O)c1cc(Cn2ncc(C(F)(C(F)(F)F)C(F)(F)F)n2)nn1-c1ncccc1Cl [Example 273] | 100% | 3.69 | 100% | 100% | 
CCNC(=O)c1cc(C#N)cc(C)c1NC(=O)c1cc(Cn2ncc(C(F)(F)C(F)(F)C(F)(F)F)n2)nn1-c1ncccc1Cl [Example 372] |  |  |  |  | pest or weed control at 100 g/ha [1]: 100%; pest or weed control at 100 g/ha [4]: 100%; chromatographic logP [2, 5]: 3.65; pest or weed control at 100 g/ha [3]: 100%
CSC[C@H](C)NC(=O)c1cc(I)cc(C)c1NC(=O)c1cc(Cn2cc(C(F)(F)F)nn2)nn1-c1ncccc1Cl [Example 212] | 100% | 3.59 | 100% | 100% | 
CCNC(=O)c1cc(C#N)cc(C)c1NC(=O)c1cc(Cn2cc(C(F)(F)F)nn2)nn1-c1ccccc1Cl [Example 294] | 100% |  | 100% | 100% | chromatographic logP [2, 6]: 2.92
Cc1cc(C#N)cc(C(N)=O)c1NC(=O)c1cc(Cn2cc(C(F)(F)F)nn2)nn1-c1ncccc1Cl [Example 184] | 100% | 2.12 | 100% |  | pest or weed control at 20 g/ha ([4]; after 6 days): 100%
Cc1cc(I)cc(C(N)=O)c1NC(=O)c1cc(Cn2ncc(C(F)(F)C(F)(F)C(F)(F)F)n2)nn1-c1ncccc1Cl [Example 381] |  |  |  |  | pest or weed control at 100 g/ha [1]: 100%; pest or weed control at 100 g/ha [4]: 100%; chromatographic logP [2, 5]: 3.7; pest or weed control at 100 g/ha [3]: 100%
CCNC(=O)c1cc(Cl)cc(C)c1NC(=O)c1cc(Cn2ncc(C(F)(F)C(F)(F)F)n2)nn1-c1ncccc1Cl [Example 350] | 100% | 3.66 | 100% | 80% | 
Cc1cc(C#N)cc(C(=O)NCC2CC2)c1NC(=O)c1cc(Cn2cc(C(F)(C(F)(F)F)C(F)(F)F)nn2)nn1-c1ncccc1Cl [Example 221] | 100% |  | 100% | 80% | chromatographic logP [2, 6]: 3.52
